In ChEMBL document CHEMBL1157845, “Structure-activity relationship of new anti-tuberculosis agents derived from oxazoline and oxazole benzyl esters” (Eur J Med Chem, 2010):
≈ marks a conversion by molar mass, not a printed value. Calls of active or inactive are those of the source. No rule for the calls is given here.

Experiments:
[1] = system: Mycobacterium tuberculosis; assay: Antimycobacterial activity against Mycobacterium tuberculosis H37Rv ATCC 27294 in GAST medium after 1 week by microplate alamar blue assay; assay type: functional; conditions: H37Rv ATCC 27294, 168 h
[2] = system: Mycobacterium tuberculosis; assay: Antimycobacterial activity against Mycobacterium tuberculosis Erdman infected in BALB/c mouse assessed as reduction of bacterial load at 200 mg/kg, po qd for 5 days per week administered 60 days after infection measured after 85 days post infection; assay type: functional, organism-based; design: dose 200 mg/kg
[3] = system: Mycobacterium tuberculosis; assay: Antimycobacterial activity against Mycobacterium tuberculosis H37Rv ATCC 27294 in GAS medium after 1 week by microplate alamar blue assay; assay type: functional; conditions: H37Rv ATCC 27294, 168 h

| SMILES | MIC [1] [µM] | Activity [2] | MIC [3] [µM] |
| --- | --- | --- | --- |
| CCCOc1ccc(-c2nc(C(=O)OCc3ccccc3)co2)cc1 | 1.94 (≈ 0.655 µg/mL) | inactive | 3.48 (≈ 1.17 µg/mL) |
| O=C(OCc1ccccc1)[C@@H]1COC(c2ccc(F)cc2[N+](=O)[O-])=N1 | 40.4 (≈ 13.9 µg/mL) | inactive | 30.7 (≈ 10.6 µg/mL) |
| COc1ccc(C2=N[C@H](C(=O)OCc3ccccc3)[C@H](C)O2)cc1 | 37.8 (≈ 12.3 µg/mL) | inactive | 54.1 (≈ 17.6 µg/mL) |
| O=C(OCc1ccccc1)[C@@H]1COC(Cc2ccccc2)=N1 | > 128 | inactive | > 128 |
| Cc1ccc(-c2nc(C(=O)OCc3ccccc3)co2)cn1 | 10.2 (≈ 3 µg/mL) | inactive | 3.01 (≈ 0.886 µg/mL) |
| COC(=O)[C@@H]1COC(c2cccc(Cl)c2)=N1 | 68.7 (≈ 16.5 µg/mL) | inactive | > 128 |
| COc1ccc(CNC(=O)c2coc(-c3cccc(Cl)c3)n2)cc1OC | 48.1 (≈ 17.9 µg/mL) | inactive | 118 (≈ 44 µg/mL) |
| CCCCOc1ccc(-c2nc(C(=O)OCc3ccccc3)co2)cc1 | 3.83 (≈ 1.35 µg/mL) | inactive | 1.76 (≈ 0.618 µg/mL) |
| O=C(OCc1ccccc1)[C@@H]1COC(c2ccc(Br)nc2)=N1 | 21.1 (≈ 7.62 µg/mL) | inactive | 22.9 (≈ 8.27 µg/mL) |
| Cc1oc(-c2ccccc2)nc1C(=O)O | > 128 | inactive | > 128 |
| O=C(OCc1ccccc1)[C@@H]1COC(c2cccc(F)c2)=N1 | 6.86 (≈ 2.05 µg/mL) | inactive | 60.7 (≈ 18.2 µg/mL) |
| O=C(OCc1ccccc1)c1coc(-c2cccnc2Oc2ccccc2)n1 | 91.4 (≈ 34 µg/mL) | inactive | 6.86 (≈ 2.55 µg/mL) |
| O=C(OCc1ccccc1)c1coc(-c2cccnc2S(=O)(=O)c2ccccc2)n1 | > 128 | inactive | 66.2 (≈ 27.8 µg/mL) |
| CCOc1ccc(C2=N[C@H](C(=O)OCc3ccccc3)CO2)cc1 | 30.5 (≈ 9.92 µg/mL) | inactive | 60.6 (≈ 19.7 µg/mL) |
| O=C(OCc1ccccc1)[C@@H]1COC(c2cncc(-c3ccccc3)c2)=N1 | 29.8 (≈ 10.7 µg/mL) | inactive | 12.5 (≈ 4.48 µg/mL) |
| CCOc1ccc(C2=N[C@H](C(=O)OCc3ccccc3)CO2)cc1F | 3.91 (≈ 1.34 µg/mL) | inactive | 50.5 (≈ 17.3 µg/mL) |
| Nc1ccc(C2=N[C@H](C(=O)OCc3ccccc3)CO2)cc1 | 26.8 (≈ 7.94 µg/mL) | inactive | 25.4 (≈ 7.53 µg/mL) |
| COc1ccc(C2=N[C@H](C(=O)OCc3ccccc3)CO2)cc1Cl | 7.58 (≈ 2.62 µg/mL) | inactive | 60.7 (≈ 21 µg/mL) |
| O=C(OCc1ccccc1)[C@@H]1COC(c2cccnc2Oc2ccccc2)=N1 | > 128 | inactive | 58.8 (≈ 22 µg/mL) |
| O=C(OCc1ccccc1)c1coc(-c2cccc(Br)c2)n1 | 6.08 (≈ 2.18 µg/mL) | inactive | 1.93 (≈ 0.691 µg/mL) |
| COC(=O)[C@@H]1COC(c2ccc([N+](=O)[O-])cc2)=N1 | > 128 | inactive | > 128 |
| O=C(OCc1ccccc1)[C@@H]1COC(c2ccccc2Cl)=N1 | 15.2 (≈ 4.8 µg/mL) | inactive | 49.9 (≈ 15.8 µg/mL) |
| O=C(OCc1ccccc1)c1coc(-c2cccnc2Sc2ccccc2)n1 | > 128 | inactive | 8 (≈ 3.11 µg/mL) |
| Cc1oc(-c2ccccc2O)nc1C(=O)O | > 128 | inactive | > 128 |

| SMILES | MIC [1] [µM] | Activity [2] | MIC [3] [µM] |
| --- | --- | --- | --- |
| COc1ccc(-c2nc(C(=O)OCc3ccccc3)c(C)o2)cc1 | 15.8 (≈ 5.11 µg/mL) | inactive | 47.4 (≈ 15.3 µg/mL) |
| O=C(O)[C@@H]1COC(c2ccccc2)=N1 | > 128 | inactive | > 128 |
| COc1cccc(-c2nc(C(=O)OCc3ccccc3)co2)c1 | 3.76 (≈ 1.16 µg/mL) | inactive | 6.04 (≈ 1.87 µg/mL) |
| O=C(OCc1ccccc1)c1coc(-c2cccnc2)n1 | 6.2 (≈ 1.74 µg/mL) | inactive | 3.82 (≈ 1.07 µg/mL) |
| O=C(OCc1ccccc1)c1coc(-c2ccc([N+](=O)[O-])cc2)n1 | 42.3 (≈ 13.7 µg/mL) | inactive | 1.79 (≈ 0.58 µg/mL) |
| CC(C)Oc1ccc(-c2nc(C(=O)OCc3ccccc3)co2)cc1 | 3.21 (≈ 1.08 µg/mL) | inactive | 1.95 (≈ 0.658 µg/mL) |
| N#Cc1cccc(-c2nc(C(=O)OCc3ccccc3)co2)c1 | 60.5 (≈ 18.4 µg/mL) | inactive | 25.2 (≈ 7.67 µg/mL) |
| CCCOc1ccc(C2=N[C@H](C(=O)OCc3ccccc3)CO2)cc1 | 22.4 (≈ 7.6 µg/mL) | inactive | 2.97 (≈ 1.01 µg/mL) |
| COC(=O)[C@H]1N=C(c2ccccc2)O[C@H]1C | > 128 | inactive | > 128 |
| O=C(OCc1ccccc1)c1coc(-c2ccncc2)n1 | 6.1 (≈ 1.71 µg/mL) | inactive | 1.42 (≈ 0.398 µg/mL) |
| O=C(OCc1ccccc1)c1coc(-c2cnccn2)n1 | 22.5 (≈ 6.33 µg/mL) | inactive | 7.32 (≈ 2.06 µg/mL) |
| O=C(OCc1ccccc1)[C@@H]1COC(c2cncc(Br)c2)=N1 | 26.6 (≈ 9.61 µg/mL) | inactive | 27.6 (≈ 9.97 µg/mL) |
| CC(C)Oc1ccc(C2=N[C@H](C(=O)OCc3ccccc3)CO2)cc1 | 14.9 (≈ 5.06 µg/mL) | inactive | 3.2 (≈ 1.09 µg/mL) |
| O=C(OCc1ccccc1)[C@@H]1COC(c2cccc(Cl)c2OCc2ccccc2)=N1 | 34 (≈ 14.3 µg/mL) | inactive | 6.3 (≈ 2.66 µg/mL) |
| COc1ccccc1-c1nc(C(=O)OCc2ccccc2)co1 | 7.54 (≈ 2.33 µg/mL) | inactive | 3.88 (≈ 1.2 µg/mL) |
| O=C(OCc1ccccc1)[C@@H]1COC(c2ccc([N+](=O)[O-])cc2F)=N1 | 8.7 (≈ 3 µg/mL) | inactive | 13 (≈ 4.48 µg/mL) |
| Cc1ccc(C2=N[C@H](C(=O)OCc3ccccc3)CO2)cc1 | 27.3 (≈ 8.06 µg/mL) | inactive | 15.5 (≈ 4.58 µg/mL) |
| O=C(O)[C@@H]1COC(c2ccccc2O)=N1 | > 128 | inactive | > 128 |
| O=C(OCc1ccccc1)[C@@H]1COC(c2ccccn2)=N1 | 127 (≈ 35.9 µg/mL) | inactive | 110 (≈ 31.1 µg/mL) |
| COc1ccc(-c2nc(C(=O)OCc3ccccc3)co2)cc1OC | 17.5 (≈ 5.94 µg/mL) | inactive | 16 (≈ 5.43 µg/mL) |
| O=C(OCc1ccccc1)[C@@H]1COC(c2cccc(Br)c2)=N1 | 52.5 (≈ 18.9 µg/mL) | inactive | 24.2 (≈ 8.72 µg/mL) |
| O=C(OCc1ccccc1)[C@@H]1COC(c2cccnc2Sc2ccccc2)=N1 | 13.4 (≈ 5.23 µg/mL) | inactive | 17.8 (≈ 6.95 µg/mL) |
| COC(=O)[C@@H]1COC(c2ccccc2O)=N1 | > 128 | inactive | > 128 |
| C[C@@H]1OC(c2ccccc2OCc2ccccc2)=N[C@@H]1C(=O)OCc1ccccc1 | > 128 | inactive | > 128 |

| SMILES | MIC [1] [µM] | Activity [2] | MIC [3] [µM] |
| --- | --- | --- | --- |
| CCCCOc1ccc(C2=N[C@H](C(=O)OCc3ccccc3)CO2)cc1 | 5.11 (≈ 1.81 µg/mL) | inactive | 2.72 (≈ 0.961 µg/mL) |
| O=C(OCc1ccccc1)[C@@H]1COC(c2cccnc2)=N1 | 92.9 (≈ 26.2 µg/mL) | inactive | 53.3 (≈ 15 µg/mL) |
| O=C(OCc1ccccc1)c1coc(-c2ccc(OCc3ccccc3)c(F)c2)n1 | 3.86 (≈ 1.56 µg/mL) | inactive | 3.03 (≈ 1.22 µg/mL) |
| O=C(OCc1ccccc1)[C@@H]1COC(c2ccc([N+](=O)[O-])cc2OCc2ccccc2)=N1 | 4.86 (≈ 2.1 µg/mL) | inactive | 15.6 (≈ 6.75 µg/mL) |
| C[C@@H]1OC(c2ccccc2)=N[C@@H]1C(=O)O | > 128 | inactive | > 128 |
| O=C(O)[C@@H]1COC(c2cccc(Cl)c2)=N1 | 106 (≈ 23.9 µg/mL) | inactive | > 128 |
| O=C(OCc1ccccc1)[C@@H]1COC(c2cnccn2)=N1 | > 128 | inactive | 61.2 (≈ 17.3 µg/mL) |
| N#Cc1cccc(C2=N[C@H](C(=O)OCc3ccccc3)CO2)c1 | 75.1 (≈ 23 µg/mL) | inactive | 47.2 (≈ 14.5 µg/mL) |
| Cc1ccc(-c2nc(C(=O)OCc3ccccc3)co2)cc1 | 7.68 (≈ 2.25 µg/mL) | inactive | 12.8 (≈ 3.77 µg/mL) |
| O=C(OCc1ccccc1)c1coc(-c2ccccc2P(=O)(c2ccccc2)c2ccccc2)n1 | 61.5 (≈ 29.5 µg/mL) | inactive | 61.8 (≈ 29.6 µg/mL) |
| COC(=O)[C@@H]1COC(c2ccccc2OCc2ccccc2)=N1 | > 128 | inactive | 118 (≈ 36.7 µg/mL) |
| O=C(OCc1ccccc1)c1coc(-c2ccccn2)n1 | 2.47 (≈ 0.692 µg/mL) | inactive | 2 (≈ 0.561 µg/mL) |
| Cc1ccc(C2=N[C@H](C(=O)OCc3ccccc3)CO2)cn1 | 122 (≈ 36.2 µg/mL) | inactive | 73 (≈ 21.6 µg/mL) |
| O=C(OCc1ccccc1)c1coc(-c2ccc([N+](=O)[O-])cc2OCc2ccccc2)n1 | > 128 | inactive | > 128 |
| O=C(OCc1ccccc1)c1coc(-c2ccc(Cl)c(F)c2)n1 | 22.4 (≈ 7.43 µg/mL) | inactive | 2.87 (≈ 0.952 µg/mL) |
| O=C(OCc1ccccc1)[C@@H]1COC(c2ccc(Cl)c(F)c2)=N1 | 6.49 (≈ 2.17 µg/mL) | inactive | 52 (≈ 17.4 µg/mL) |
| O=C(OCc1ccccc1)[C@@H]1COC(c2ccncc2)=N1 | 81.3 (≈ 23 µg/mL) | inactive | 55.6 (≈ 15.7 µg/mL) |
| O=C(OCc1ccccc1)[C@@H]1COC(c2ccc(Cl)cc2)=N1 | 14.9 (≈ 4.7 µg/mL) | inactive | 61 (≈ 19.3 µg/mL) |
| COc1ccccc1C1=N[C@H](C(=O)OCc2ccccc2)CO1 | 29.2 (≈ 9.09 µg/mL) | inactive | 37 (≈ 11.5 µg/mL) |
| O=C(OCc1ccccc1)c1coc(-c2cccc(Cl)c2OCc2ccccc2)n1 | > 128 | inactive | 5.4 (≈ 2.27 µg/mL) |
| COc1cccc(C2=N[C@H](C(=O)OCc3ccccc3)CO2)c1 | 42.5 (≈ 13.2 µg/mL) | inactive | 24.8 (≈ 7.72 µg/mL) |
| COc1ccc(CC2=N[C@H](C(=O)OCc3ccccc3)CO2)cc1 | > 128 | inactive | > 128 |
